Data from ChEMBL document CHEMBL1147590, “Synthesis and antitumor activity of s-tetrazine derivatives” (Bioorg Med Chem Lett, 2004).

Assays:
A549 [1] = assay: In vitro rate of inhibition of A-549 tumor cell growth at 10E-7 mol/L; format: functional, Homo sapiens; conditions: at 0.1 µM
A549 [2] = assay: In vitro rate of inhibition of A-549 tumor cell growth at 10E-8 mol/L; format: functional, Homo sapiens; conditions: at 0.01 µM
P388 [3] = assay: In vitro rate of inhibition of P388 tumor cell growth at 10E-7 mol/L; format: functional, Mus musculus; conditions: at 0.1 µM
A549 [4] = assay: In vitro rate of inhibition of A-549 tumor cell growth at 10E-5 mol/L; format: functional, Homo sapiens; conditions: at 10 µM
P388 [5] = assay: In vitro rate of inhibition of P388 tumor cell growth at 10E-5 mol/L; format: functional, Mus musculus; conditions: at 10 µM
P388 [6] = assay: In vitro rate of inhibition of P388 tumor cell growth at 10E-6 mol/L; format: functional, Mus musculus; conditions: at 1 µM
P388 [7] = assay: In vitro rate of inhibition of P388 tumor cell growth at 10E-8 mol/L; format: functional, Mus musculus; conditions: at 0.01 µM
P388 [8] = assay: In vitro rate of inhibition of P388 tumor cell growth at 10E-4 mol/L; format: functional, Mus musculus; conditions: at 100 µM
A549 [9] = assay: In vitro rate of inhibition of A-549 tumor cell growth at 10E-4 mol/L; format: functional, Homo sapiens; conditions: at 100 µM
A549 [10] = assay: In vitro rate of inhibition of A-549 tumor cell growth at 10E-6 mol/L; format: functional, Homo sapiens; conditions: at 1 µM

Structure (SMILES)	Rate of inhibition (A549 [1]) [%]	Rate of inhibition (A549 [2]) [%]	Rate of inhibition (P388 [3]) [%]	Rate of inhibition (A549 [4]) [%]	Rate of inhibition (P388 [5]) [%]	Rate of inhibition (P388 [6]) [%]	Rate of inhibition (P388 [7]) [%]	Rate of inhibition (P388 [8]) [%]	Rate of inhibition (A549 [9]) [%]	Rate of inhibition (A549 [10]) [%]
CCCCCCCCCCCCC/C=C/[C@@H](O)[C@H](CO)NC(C)=O	7.7	12.3	3.1	9.2	4.7	3.1	0	73.4	24.6	6.2
CCCC1=NN(C(=O)OC)C(CCC)N=N1 (stereo not given)	0	0	1.7	0	17.3	4.5	3.3	90.4	59.6	0
Clc1ccc(Cc2nnc(Cc3ccc(Cl)cc3)nn2)cc1	1.1	8.7	8.9	57.1	29.1	9.3	0	58.4	65.8	13.1
CCCC1=NNC(CCC)N=N1 (stereo not given)	0	0	0	0.5	0	0	0	42.2	61.7	0
Clc1cccc(-c2nnc(-c3cccc(Cl)c3)nn2)c1	0	0	13.5	0	26.5	33.2	4.3	40.3	0	0
Cc1ccc(-c2nnc(-c3ccc(C)cc3)nn2)cc1	0	0	2.4	17	8.3	4.4	4.5	56.4	90.3	0
CC(=O)N1NC(C)N(C(C)=O)NC1C (stereo not given)	7.4	3.2	0	6	0.1	4.3	0	14.5	68.5	3.6
CCCC1=NN(C(=O)Nc2cccc(Cl)c2)C(CCC)=NN1C(=O)Nc1cccc(Cl)c1	10.8	0	0	88.4	58.7	0	0	84.4	91.3	59.6
FC(F)(F)c1ccc(-c2nnc(-c3ccc(C(F)(F)F)cc3)nn2)cc1	0	0	19.5	2.5	44.4	33	9.7	51.5	40.2	0
CC1=NN(C(=O)Nc2cccc(Cl)c2)C(C)=NN1C(=O)Nc1cccc(Cl)c1	0	0	0	7.6	29.7	6.3	0	85.9	21.2	0
CC1=NN(C(=O)OCCC(C)C)C(C)N=N1 (stereo not given)	0	0	0.8	0	17.8	13.6	0	28.8	0	0
CCCC1=NN(C(=O)Nc2cccc(C)c2)C(CCC)=NN1C(=O)Nc1cccc(C)c1	4	0	4.8	84.2	63.9	0	0	81.6	93.3	74.1
CCOC(=O)c1cccc(NC(=O)N2N=C(C)N(C(=O)Nc3cccc(C(=O)OCC)c3)N=C2C)c1	5.7	1.1	0	12.5	0	0	0	46.3	67	6.8
Clc1ccc(-c2nnc(-c3ccc(Cl)cc3)nn2)cc1	0	0	19.4	0	35.1	29	16.1	52.3	0	0
CCCCC1NN(C(C)=O)C(CCCC)NN1C(C)=O (stereo not given)	4.8	0	0	13.1	0	0	0	37.9	47.6	6.4
CCCOC(=O)N1C(c2ccccc2)=NN=C(c2ccccc2)N1C(=O)OCCC	0	0	4.3	29.8	54.8	4.5	2.5	80.9	23.4	0.5
CCCC1=NN(C(=O)OCCC(C)C)C(CCC)N=N1 (stereo not given)	0	0	7.3	0	14.3	6.9	9.9	83.5	89.4	0
COc1ccccc1NC(=O)N1N=C(C)N(C(=O)Nc2ccccc2OC)N=C1C	0	0	0	0	17.2	1.6	0	59.4	80	0
